The results in this text go back to PMC7804859, “A metabolically stable apelin-17 analog decreases AVP-induced antidiuresis and improves hyponatremia” (Nature Communications, 2021).

Structures are written as SMILES.

The nature of data set [1]: Plasma protein binding (Rapid Equilibrium Dialysis). The conditions noted are these: RED plate, 12 kDa cutoff, plasma vs phosphate buffer, 10 µmol/l, 4 hours, 37 °C, 600 rpm, UHPLC-MS/MS; value at equilibrium. In kind it is in vitro ADME. The method, then: 252 TechMedILL platfor m (Illkirch) reviewed and approved by the agriculture ministry regulating
256 Male Sprague-Dawley rats were killed by decapitation, and trunk blood was collected on ice
257 (into 50 µl of 0.3M EDTA (pH 7.4) per 1 ml of blood). Samples were centrifuged (2,600 x g,
258 4°C, 20 min), and the resulting plasma was split into 500 µl aliquots, to which we added 168
259 µl of 3N HCl before storage at -80°C. The AVP RIA was performed as previously described
260 5, using a specific AVP-[Arg8] antibody (final dilution, 1/4.5) and [125I]-(Tyr2Arg8)-AVP
261 (2200 Ci/mmol, Perkin-Elmer, Billerica, MA; 15000 dpm) as a tracer.
263 Plasma protein binding of LIT01-196 was determined using Thermo Scientific Single-Use
264 RED Plate (Rapid Equilibrium Dialysis) composed of dialysis inserts with a me mbrane cutoff
265 of 12 kDa. Compound (10 µmol/l) was spiked in plasma chamber (donor side); phosphate
266 buffer was placed in the receiving side. The plate was rotated at 37 °C on an orbital shaker at
267 600 rpm for 4 hours. Peptide concentration was determined for the plasma sample that
268 represents the bound fraction, the peptide concentration was deter mined for the buffer sample
269 that represents the free fraction. The samples were analyzed by UHPLC-MS/MS (LC-MS […]
274 proteins. Percentages of bound and free peptides were calculated as follows: % free peptide = […]
Background: Equilibrium dialysis compares concentrations on both sides of a semipermeable membrane.

The next data set is described as follows: in vivo. The conditions noted are these: mice, 30 min after s.c. 900 nmol/kg. The method, then: 187 Apelin radioimmunoassay
188 Plasma samples (0.5 ml) were acidified with 0.175 ml of 3 mol/l HCl and stored at -80°C
189 until use for apelin RIA. Before thawing the sample on ice, 0.05% BSA was added, and the
190 samples were centrifuged at 20000 x g at 4°C for 10 min. The supernatants were collected and
191 the pH was adjusted to 6.5 with 10 mol/l NaOH and 2 mol/l Tris-HCl buffer (pH 7.4). Apelin
192 was extracted from plasma by mixing the supernatant with 0.3 ml of 0.1% BSA in H2O and 1
193 ml of 1% trifluoroacetic acid (TFA) - 0.1% BSA, and running the mixture on a Sep-Pak C18
194 cartridge (Waters) previously washed with 2 ml 100% acetonitrile and equilibrated with 5 ml
195 1% TFA - 0.1% BSA. The columns then were washed with 3 ml 1% TFA - 0.1% BSA and
196 apelin was eluted with 1.5 ml 100% acetonitrile. […]
208 Plasma or brain apelin levels w ere deter mined by RIA. Samples (0.1ml) w ere mixed with 125I-
211 dilution: 1/4500) to give a total volume of 0.2 ml and were incubated at 4°C overnight. We
212 used this radioligand instead of [Glp65, Nle75, Tyr77] [125I]-apelin13 since the substitution of
214 derivatives as described previously by 3,4.
215 We then added 0.5 ml of Amerlex (Amersham RPN 510), and the resulting mixture was
216 incubated for 10 min at room temperature. The tubes were centrifuged at 2600 x g at 4°C for
217 20 min. The supernatant was removed and the radioactivity of the precipitates was measured. […]

A further data set concerns the target T1, human V2-R (Homo sapiens, UniProt P30518).
T1 construct: host or cells: HEK-293T cells, transient transfection
Briefly: cAMP production in HEK-293 T cells expressing the human V2-R (HTRF). As to conditions: HEK-293 T cells, human V2-R. In kind it is cell-based. The method, then:
(§1) 152 Supplementary Methods
(§2) 154 We quantified cAMP production with the cAMP dynamic 2 assay kit (Cisbio Bioassays,
(§3) 155 Codolet, France), which is based on homogeneous time-resolved fluorescence (HTRF)
156 technology, as previously described 1. […]
For cells expressing the V2-R, HEK-
160 293T cells were transiently transfected with the human V2-R (cDNA Resource Center), after
161 48h, 4000 cells/well were added to white 384-well optiplates and stimulated either with 5
(§4) Cells were then lysed, and
(§5) 165 cAMP levels were determined in accordance with the kit manufacturer’s instructions.
(§6) 166 Stimulation was performed in stimulation buffer-IBMX (SBI) (Hank’s balanced salt solution
(§7) 167 (HBSS-Life Technology), 5 mmol/l Hepes, 0.1% BSA stabilizer (Perkin Elmer), 1 mmol/l
(§8) 168 isobutylmethylxanthine (IBMX, Sigma Aldrich, pH 7.4)). […]
For orientation: Changes in cAMP serve as a functional read-out for many G protein-coupled receptors.

The target of a further data set is T2, rat apelin-R-EGFP (Rattus norvegicus, UniProt Q9JHG3).
T2 construct: expressed in transfected cells
T2 sequence (Q9JHG3 1-377): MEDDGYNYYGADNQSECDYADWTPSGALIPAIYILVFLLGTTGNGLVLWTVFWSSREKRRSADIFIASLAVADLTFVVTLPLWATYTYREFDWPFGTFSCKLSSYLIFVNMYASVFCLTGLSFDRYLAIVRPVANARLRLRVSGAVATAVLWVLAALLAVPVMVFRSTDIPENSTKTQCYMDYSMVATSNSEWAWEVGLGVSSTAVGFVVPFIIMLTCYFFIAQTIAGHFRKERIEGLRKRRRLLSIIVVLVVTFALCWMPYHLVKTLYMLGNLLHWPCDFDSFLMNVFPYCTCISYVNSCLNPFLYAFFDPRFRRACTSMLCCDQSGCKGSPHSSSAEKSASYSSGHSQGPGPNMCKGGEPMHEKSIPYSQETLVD
Briefly: Inhibition of forskolin-induced cAMP production in CHO cells stably expressing rat apelin-R-EGFP (HTRF). As to conditions: 5 µmol/l forskolin, 30 min 20 °C. In kind it is cell-based. The method, then:
as §1, §2, §3
156 technology, as previously described 1. For cells expressing the Apelin-R, 2000 CHO cells/well
157 stably expressing rat apelinR-EGFP (clone B70) were added to the 384-well plate and
158 stimulated with 5 µmol/l forskolin (FSK) and various concentrations (0.01 pmol/l to 100 […]
as §4, §5, §6, §7, §8

For data set [2], the system named is hyponatremic rats (AVP 30 ng/h). As to the kind of experiment: Effects of LIT01-196 and tolvaptan in rat model of AVP-induced hyponatremia. The data set is classed as in vivo.
Method: Meloxicam was administered postoperatively for analgesia. Animals were then individually housed in metabolic cages (Techniplast), and given a semi-liquid diet consisting of 25 ml Gel-Diet Breeding-10 (SAFE, Augy, France) mixed with 25 ml tap water per day, with water available ad libitum. Animal weight, water, and food consumption were measured daily. Urine was collected daily, urinary electrolytes (Na^+, K^+, Cl^−) were determined with an ISE 3000 (Caretium Medical Instruments, Shenzhen, China) and urinary osmolality was measured with a Cryobasic 1 osmometer (Astori Tecnica, Poncarale, Italy). Blood samples were collected on ice, before implantation of the osmotic minipump, and before drug administration, under isoflurane anesthesia, from the tail vein (4 µl of lithium heparinate (1600 IU/ml) for 400 µl of blood). The blood samples were immediately centrifuged (4 °C, 2600 × g, 20 min), and plasma electrolyte (Na^+, K^+, Cl^−) levels were quantified with an ISE 3000. On the last day of the experiment, blood was also collected on ice by intracardiac puncture. This blood sample was collected into lithium heparinate under isoflurane anesthesia; plasma electrolyte levels were determined as described above and the animals were immediately killed by carbon monoxide inhalation.
Data set [3] relates to control Sprague-Dawley rats. As to the kind of experiment: Effects of i.v. administration on urine output, urine osmolality and water intake in normonatremic rats. The data set is classed as in vivo, rat.
Method: Male Swiss mice (25–30 g, 4–6 weeks) and male Sprague–Dawley rats (210–230 g, 6–8 weeks) were obtained from Charles River Laboratories (L’Arbresle, France). While housed in our animal facility, they were given free access to normal chow and water, and they were maintained under 12-h light/dark cycles throughout the study. Temperature was maintained between 18 and 22 °C, and humidity between 40 and 60%. When required for i.v. administration, a right femoral venous catheter was implanted in the rats, by tunneling under the skin, under isoflurane anesthesia (4% for induction, 2% for maintenance). Meloxicam (Metacam) was administered postoperatively (1 mg/kg s.c.) for analgesia.
The mark [4] stands for this setting: 15 nmol/kg i.v., control rats, 24 h, n = 6.

T1 sequence (P30518 whole entry): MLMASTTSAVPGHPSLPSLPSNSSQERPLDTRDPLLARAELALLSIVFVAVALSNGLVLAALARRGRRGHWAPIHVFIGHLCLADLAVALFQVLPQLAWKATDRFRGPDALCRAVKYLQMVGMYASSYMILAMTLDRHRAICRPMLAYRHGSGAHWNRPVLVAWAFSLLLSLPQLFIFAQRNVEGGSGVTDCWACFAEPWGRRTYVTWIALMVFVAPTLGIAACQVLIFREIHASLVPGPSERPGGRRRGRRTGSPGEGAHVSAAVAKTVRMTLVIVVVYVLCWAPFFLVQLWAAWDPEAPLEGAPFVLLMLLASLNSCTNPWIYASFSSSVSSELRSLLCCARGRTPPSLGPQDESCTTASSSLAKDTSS

The IC50 is the concentration that gives 50% inhibition. High values mean a need for much substance, low ones inhibition by little substance. With `CSCC[C@H](NC(=O)[C@@H]1CCCN1C(=O)CNC(=O)[C@H](CCCCN)NC(=O)[C@H](Cc1c[nH]cn1)NC(=O)[C@H](CO)NC(=O)[C@H](CC(C)C)NC(=O)[C@H](CCCNC(=N)N)NC(=O)[C@@H]1CCCN1C(=O)[C@H](CCCNC(=N)N)NC(=O)[C@H](CCC(N)=O)NC(=O)[C@H](CCCNC(=N)N)NC(=O)[C@H](CCCNC(=N)N)NC(=O)[C@H](Cc1ccccc1)NC(=O)[C@H](CCCCN)NC(=O)CCC(F)(F)C(F)(F)C(F)(F)C(F)(F)C(F)(F)C(F)(F)C(F)(F)C(F)(F)F)C(=O)N1CCC[C@H]1C(=O)N[C@@H](Cc1ccccc1)C(=O)O` [LIT01-196], the “bound fraction to plasma proteins” value in data set [1] is 69 ± 7%. The “plasma apelin-IR levels, times basal levels” value in the data set “in vivo” was 9.7 times. In the data set “in vivo” (basal 1.3 ± 0.073, n = 5), the “plasma apelin-IR levels” value turned out to be 12.4 ± 2.5 pmol/mL. In addition, the “effect on cAMP production induced by 1 µmol/l AVP” value on human V2-R (1 µmol/l compound, 30 min 37 °C) is “did not modify”. Besides, at human V2-R (compound alone at 1 µmol/l), the “effect on basal cAMP production” value is “did not modify”. The compound further displayed an IC50 against rat apelin-R-EGFP of 1.7 ± 0.5 nM. Further, the “increase in urine output 24 h after s.c. administration” value in data set [2] (180 nmol/kg s.c., rats receiving 30 ng/h AVP) turned out to be 1.5 ± 2.0 ml/24 h/100 g; in data set [2] (900 nmol/kg s.c., rats receiving 30 ng/h AVP and liquid diet), 11.7 ± 2.3 ml/24 h/100 g; in data set [2] (2400 nmol/kg s.c., rats receiving 30 ng/h AVP) it was 9.2 ± 4.1 ml/24 h/100 g. Moreover, in data set [2] (900 nmol/kg s.c. on days 0 and 1), the “urine osmolality, lower than AVP + saline group” value was determined as 58%. In addition, the “urine output, higher than AVP + saline group” value in data set [2] (900 nmol/kg s.c. on days 0 and 1, average days 1 to 2, n = 9) came out at 185%. Further, the “plasma sodium concentration on day 2” value in data set [2] (900 nmol/kg s.c. on days 0 and 1, saline 100 ± 2) is 110 ± 5 mmol/L. In data set [2] (900 nmol/kg s.c., 24 h after first administration, saline 100 ± 2), the “plasma sodium concentration on day 1” value was 109 ± 5 mmol/L. For the same compound, the “body weight change from baseline versus saline” value in data set [2] (900 nmol/kg s.c., AVP-treated animals) is “similar”. The “water consumption (including water in diet), higher than AVP + saline group” value in data set [2] (900 nmol/kg s.c., average days 1 to 2) is listed as 177%. In addition, the food consumption entry in data set [2] (900 nmol/kg s.c., hyponatremic rats) was “significant increase”. In data set [3] (setting [4]), the “decrease in urine osmolality relative to saline” value is on record as 38%. Also, the “increase in urine output relative to saline” value in data set [3] (setting [4]) is given as 95%. The water intake entry in data set [3] (i.v., K17F 400 nmol/kg, LIT01-196 15 nmol/kg, 24 hours) was “did not induce a significant change”.
